Biological target: T1, human FFAR1 (GPR40) (Homo sapiens, UniProt O14842)
T1 construct: Flag; expressed in transfected cells; host or cells: HEK293T
Test: NFAT-RE-based reporter gene activity assay (Dual-Glo luciferase) for GPR40 agonistic activity in co-transfected HEK293T cells
Type: cell-based
Settings: 4-hour treatment; for Efficacy (%): class symbols
In short: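 Agonism read as NFAT-RE-driven firefly luciferase over Renilla control (Dual-Glo) after 4 h compound exposure, top concentration 1 µM, 10 half-log steps.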

T1 sequence (O14842 whole entry): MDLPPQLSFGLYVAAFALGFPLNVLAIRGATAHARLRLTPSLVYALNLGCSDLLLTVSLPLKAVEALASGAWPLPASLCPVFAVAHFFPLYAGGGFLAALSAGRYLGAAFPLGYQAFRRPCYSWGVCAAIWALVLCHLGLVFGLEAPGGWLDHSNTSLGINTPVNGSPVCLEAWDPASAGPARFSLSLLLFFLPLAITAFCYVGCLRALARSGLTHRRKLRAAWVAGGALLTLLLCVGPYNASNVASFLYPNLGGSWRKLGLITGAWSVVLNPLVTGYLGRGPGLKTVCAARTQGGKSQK

| SMILES | EC50 | Efficacy (%) |
| --- | --- | --- |
| Cc1ccccc1N1CCC(c2oc3cc(C(CC(=O)O)C4CC4)ccc3c2-c2cccc(C(C)(C)C)c2)CC1 (stereo not drawn) [Compound 5] | 100 to 500 nM | ††† (Efficacy (%) > 150) |
| COc1cccc(N2CCC(c3oc4cc([C@@H](CC(=O)O)C5CC5)ccc4c3-c3nnc(C(C)(C)C(F)(F)F)o3)CC2)c1 [Compound 49] | ≤ 10 nM | †† (150 ≥ Efficacy (%) > 100) |
| COc1cccc(N2CCC(c3oc4cc(C(CC(=O)O)C5CC5)ccc4c3-c3nnc(C(C)(C)C(F)(F)F)o3)CC2)c1 (stereo not drawn) [Compound 126] | 10 to 100 nM | †† (150 ≥ Efficacy (%) > 100) |
| COc1cccc(N2CCC(c3oc4cc([C@@H](CC(=O)O)C5CC5)ccc4c3C(=O)Nc3cc(C)ccc3OC)CC2)c1 [Compound 272] | 10 to 100 nM | ††† (Efficacy (%) > 150) |
| COc1cccc(N2CCC(c3oc4cc([C@@H](CC(=O)O)C5CC5)ccc4c3C(O)c3ccccc3)CC2)c1 (stereo partly drawn) [Compound 424] | > 500 nM | †† (150 ≥ Efficacy (%) > 100) |
| COc1ccc(F)c(N2CCC(c3oc4cc(C(CC(=O)O)C5CC5)ccc4c3/C=C/C(C)(C)O)CC2)c1 (stereo not drawn) [Compound 368] | 100 to 500 nM | ††† (Efficacy (%) > 150) |
| CC(C)=CCc1c(C2CCN(c3ccc4c(c3)OCO4)CC2)oc2cc([C@@H](CC(=O)O)C3CC3)ccc12 [Compound 376] | 10 to 100 nM | †† (150 ≥ Efficacy (%) > 100) |
| COc1cccc(N2CCC(c3oc4cc([C@@H](CC(=O)O)C5CC5)ccc4c3C(C)OCC(C)C)CC2)c1 (stereo partly drawn) [Compound 409] | 10 to 100 nM | ††† (Efficacy (%) > 150) |
| COc1cccc(N2CCC(c3oc4cc([C@@H](CC(=O)O)C5CC5)ccc4c3C(=O)Nc3cc(C#N)ccc3Cl)CC2)c1 [Compound 282] | 10 to 100 nM | †† (150 ≥ Efficacy (%) > 100) |
| COc1cccc(N2CCC(c3oc4cc([C@@H](CC(=O)O)C5CC5)ccc4c3C(C)OCc3ccco3)CC2)c1 (stereo partly drawn) [Compound 420] | 100 to 500 nM | †† (150 ≥ Efficacy (%) > 100) |
| COc1cccc(N2CCC(c3oc4cc([C@@H](CC(=O)O)C5CC5)ccc4c3C(OC)c3ccccc3)CC2)c1 (stereo partly drawn) [Compound 425] | 100 to 500 nM | †† (150 ≥ Efficacy (%) > 100) |
| CCc1ccc(-c2c(C3CCN(c4cc(OC)ccc4F)CC3)oc3cc(C(CC(=O)O)C4CC4)ccc23)cc1 (stereo not drawn) [Compound 162] | 100 to 500 nM | ††† (Efficacy (%) > 150) |
| COc1cccc(N2CCC(c3oc4cc(C(CC(=O)O)C5CC5)ccc4c3-c3cnn(C(C)(C)CF)c3)CC2)c1 (stereo not drawn) [Compound 47] | 100 to 500 nM | †† (150 ≥ Efficacy (%) > 100) |
| COc1cccc(N2CCC(c3oc4cc([C@@H](CC(=O)O)C5CC5)ccc4c3C(=O)Nc3cc(-c4ccccc4)ccc3Cl)CC2)c1 [Compound 280] | 100 to 500 nM | †† (150 ≥ Efficacy (%) > 100) |
| COc1ccc(F)c(N2CCC(c3oc4cc(C(CC(=O)O)C5CC5)ccc4c3-c3cccc(C(F)(F)F)c3)CC2)c1 (stereo not drawn) [Compound 172] | 100 to 500 nM | † (100 ≥ Efficacy (%) > 50) |
| COc1cccc(N2CCC(c3oc4cc([C@@H](CC(=O)O)C5CC5)ccc4c3-c3ncc(C(C)(C)C)s3)CC2)c1 [Compound 113] | ≤ 10 nM | †† (150 ≥ Efficacy (%) > 100) |
| COc1cccc(N2CCC(c3oc4cc(C(CC(=O)O)C5CC5)ccc4c3-c3cnn(C(C)(C)C)c3)CC2)c1F (stereo not drawn) [Compound 86] | 10 to 100 nM | ††† (Efficacy (%) > 150) |
| CCCCC(c1ccccc1)c1c(C2CCN(c3cccc(OC)c3)CC2)oc2cc([C@@H](CC(=O)O)C3CC3)ccc12 (stereo partly drawn) [Compound 386] | 10 to 100 nM | †† (150 ≥ Efficacy (%) > 100) |
| COc1cccc(N2CCC(c3oc4cc([C@@H](CC(=O)O)C5CC5)ccc4c3CN(CC(C)(C)C)C(C)=O)CC2)c1 [Compound 442] | 100 to 500 nM | †† (150 ≥ Efficacy (%) > 100) |
| COc1cccc(N2CCC(c3oc4cc(C(CC(=O)O)C5CC5)ccc4c3-c3nnc(C45CC6CC(CC(C6)C4)C5)o3)CC2)c1 (stereo not drawn) [Compound 139] | 100 to 500 nM | †† (150 ≥ Efficacy (%) > 100) |
| Cc1cccc(N2CCC(c3oc4cc(C(CC(=O)O)C5CC5)ccc4c3-c3cccc(C(C)(C)C)c3)CC2)c1 (stereo not drawn) [Compound 4] | 100 to 500 nM | † (100 ≥ Efficacy (%) > 50) |
| COc1cccc(N2CCC(c3oc4cc([C@@H](CC(=O)O)C5CC5)ccc4c3C(=O)Nc3cc(F)ccc3F)CC2)c1 [Compound 257] | ≤ 10 nM | ††† (Efficacy (%) > 150) |
| CC(C)(C)c1cccc(-c2c(C3CCN(c4ccccc4OC(F)(F)F)CC3)oc3cc(C(CC(=O)O)C4CC4)ccc23)c1 (stereo not drawn) [Compound 23] | 100 to 500 nM | †† (150 ≥ Efficacy (%) > 100) |
| COc1ccc(N2CCC(c3oc4cc(C(CC(=O)O)C5CC5)ccc4c3-c3cccc(C(C)(C)C)c3)CC2)cc1 (stereo not drawn) [Compound 10] | 100 to 500 nM | †† (150 ≥ Efficacy (%) > 100) |

| SMILES | EC50 | Efficacy (%) |
| --- | --- | --- |
| COc1cccc(N2CCC(c3oc4cc(C(CC(=O)O)C5CC5)ccc4c3C(=O)N3CC4(CCC4)C3)CC2)c1 (stereo not drawn) [Compound 360] | > 500 nM | ††† (Efficacy (%) > 150) |
| COc1cccc(N2CCC(c3oc4cc(C(CC(=O)O)C5CC5)ccc4c3C(=O)NC3C4CC5CC(C4)CC3C5)CC2)c1 (stereo not drawn) [Compound 352] | 10 to 100 nM | †† (150 ≥ Efficacy (%) > 100) |
| Cc1ccc(N2CCC(c3oc4cc(C(CC(=O)O)C5CC5)ccc4c3-c3cccc(C(C)(C)C)c3)CC2)cc1 (stereo not drawn) [Compound 3] | 100 to 500 nM | †† (150 ≥ Efficacy (%) > 100) |
| COc1cccc(N2CCC(c3oc4cc(C(CC(=O)O)C5CC5)ccc4c3C(=O)NC34CC(C3)C4)CC2)c1 (stereo not drawn) [Compound 345] | 100 to 500 nM | †† (150 ≥ Efficacy (%) > 100) |
| COc1cccc(-c2c(C3CCN(c4cccc(OC)c4)CC3)oc3cc(C(CC(=O)O)C4CC4)ccc23)c1 (stereo not drawn) [Compound 29] | 100 to 500 nM | †† (150 ≥ Efficacy (%) > 100) |
| Cc1ccc(Cl)c(NC(=O)c2c(C3CCN(c4ccc5c(c4)OCO5)CC3)oc3cc([C@@H](CC(=O)O)C4CC4)ccc23)c1 [Compound 332] | ≤ 10 nM | †† (150 ≥ Efficacy (%) > 100) |
| CCCC(C)(C)c1nnc(-c2c(C3CCN(c4cccc(OC)c4)CC3)oc3cc(C(CC(=O)O)C4CC4)ccc23)o1 (stereo not drawn) [Compound 129] | 10 to 100 nM | †† (150 ≥ Efficacy (%) > 100) |
| COc1ccc(F)c(N2CCC(c3oc4cc(C(CC(=O)O)C5CC5)ccc4c3-c3cccc(NCC(C)(C)C)c3)CC2)c1 (stereo not drawn) [Compound 188] | 100 to 500 nM | †† (150 ≥ Efficacy (%) > 100) |
| COc1ccc(F)c(N2CCC(c3oc4cc(C(CC(=O)O)C5CC5)ccc4c3C=C(C)C)CC2)c1 (stereo not drawn) [Compound 370] | 100 to 500 nM | †† (150 ≥ Efficacy (%) > 100) |
| COc1cccc(N2CCC(c3oc4cc(C(CC(=O)O)C5CC5)ccc4c3-c3cnn(C(C)(C)C(=O)N(C)C)c3)CC2)c1 (stereo not drawn) [Compound 53] | 100 to 500 nM | †† (150 ≥ Efficacy (%) > 100) |
| COc1cccc(N2CCC(c3oc4cc(C(CC(=O)O)C5CC5)ccc4c3-c3nnc(C4(C)CCCCC4)o3)CC2)c1 (stereo not drawn) [Compound 140] | 100 to 500 nM | ††† (Efficacy (%) > 150) |
| CCCOC(C)c1c(C2CCN(c3cccc(OC)c3)CC2)oc2cc([C@@H](CC(=O)O)C3CC3)ccc12 (stereo partly drawn) [Compound 408] | 100 to 500 nM | ††† (Efficacy (%) > 150) |
| COc1ccc(F)c(N2CCC(c3oc4cc(C(CC(=O)O)C5CC5)ccc4c3C3=CCCCC3)CC2)c1 (stereo not drawn) [Compound 379] | 100 to 500 nM | †† (150 ≥ Efficacy (%) > 100) |
| COc1cccc(N2CCC(c3oc4cc([C@@H](CC(=O)O)C5CC5)ccc4c3-c3cnn(C(C)(C)C)c3)CC2)c1F [Compound 87] | 10 to 100 nM | †† (150 ≥ Efficacy (%) > 100) |
| CC(C)(C)n1cc(-c2c(C3CCN(c4cccc(C5CC5)c4)CC3)oc3cc(C(CC(=O)O)C4CC4)ccc23)cn1 (stereo not drawn) [Compound 45] | 100 to 500 nM | †† (150 ≥ Efficacy (%) > 100) |
| CCCCCCNC(=O)c1ccc(OC)cc1N1CCC(c2oc3cc(C(CC(=O)O)C4CC4)ccc3c2-c2cnn(C(C)(C)C)c2)CC1 (stereo not drawn) [Compound 95] | 100 to 500 nM | †† (150 ≥ Efficacy (%) > 100) |
| COc1ccc(F)c(N2CCC(c3oc4cc(C(CC(=O)O)C5CC5)ccc4c3-c3cccc(C#N)c3)CC2)c1 (stereo not drawn) [Compound 174] | 100 to 500 nM | †† (150 ≥ Efficacy (%) > 100) |
| COc1cccc(N2CCC(c3oc4cc([C@@H](CC(=O)O)C5CC5)ccc4c3C(OCC(C)C)c3ccccc3F)CC2)c1 (stereo partly drawn) [Compound 432] | 10 to 100 nM | ††† (Efficacy (%) > 150) |
| COc1cccc(N2CCC(c3oc4cc([C@@H](CC(=O)O)C5CC5)ccc4c3-c3nnc(C(C)(C)C)o3)CC2)c1F [Compound 141] | ≤ 10 nM | ††† (Efficacy (%) > 150) |
| COc1ccc(F)c(N2CCC(c3oc4cc([C@@H](CC(=O)O)C5CC5)ccc4c3-c3ccc(C(C)(C)O)cc3)CC2)c1 [Compound 177] | 100 to 500 nM | †† (150 ≥ Efficacy (%) > 100) |
| COc1ccc(F)c(N2CCC(c3oc4cc(C(CC(=O)O)C5CC5)ccc4c3-c3ccc(NC(C)C)cc3)CC2)c1 (stereo not drawn) [Compound 184] | 100 to 500 nM | † (100 ≥ Efficacy (%) > 50) |
| COc1ccc(F)c(N2CCC(c3oc4cc(C(CC(=O)O)C5CC5)ccc4c3CC(C)=O)CC2)c1 (stereo not drawn) [Compound 395] | 100 to 500 nM | † (100 ≥ Efficacy (%) > 50) |
| COc1cccc(N2CCC(c3oc4cc(C(CC(=O)O)C5CC5)ccc4c3C(=O)NC34CC5CC(CC(C)(C5)C3)C4)CC2)c1 (stereo not drawn) [Compound 353] | 100 to 500 nM | ††† (Efficacy (%) > 150) |
| COc1cccc(N2CCC(c3oc4cc([C@@H](CC(=O)O)C5CC5)ccc4c3C(=O)Nc3cc(OC(F)(F)F)ccc3F)CC2)c1 [Compound 262] | < 10 nM | †† (150 ≥ Efficacy (%) > 100) |

Source: patent publication EP4682145A1, “BENZOHETEROCYCLIC COMPOUND, AND PREPARATION METHOD THEREFOR AND USE THEREOF” (Cascade Pharmaceuticals, Inc., priority 2023, dated 2024)
